According to patent publication USRE39707E1, “Camptothecin derivatives” (Catholic Healthcare West, priority 2001, dated 2007):
Read-outs that look alike come from different tables or passages of the source.

Experiments:
PC-3 = assay: Cell colony formation assay, PC-3 cells; format: cell-based, human; details: 72 hours drug exposure
Protocol: (§1) This example provides directions for growing cells and testing compounds of the invention for their effect on the growth of the cells. All cells were purchased from DCIDC Tumor Repository, NCI, NIH.
(§2) Four hundred cells (HCT 116, PC-3, NCI/ADR-RES: human breast cancer cells) or five hundred cells (VM46) were plated in 60 mm Petri dishes containing 2.7 ml of medium (modified McCoy's 5a medium) containing 10% fetal bovine serum and 100 units/ml penicillin and 100 mg/ml streptomycin. The cells were incubated in a CO2 incubator at 37° C. for 5 hours for attachment to the bottom of Petri dishes. Drugs were made fresh in medium at ten times the final concentration, and then 0.3 ml of this stock solution was added to the 2.7 ml of medium in the dish. The cells were then incubated with drugs for 72 hours at 37° C. At the end of the incubation the drug-containing media were decanted, the dishes were rinsed with 4 ml of Hank's Balance Salt Solution (HBSS), 5 ml of fresh medium was added, and the dishes were returned to the incubator for colony formation. The cell colonies were counted using colony counter after incubation for 7 days for HCT116 cells and PC-3 cells and 8 days for VM46 cells, respectively.
(§3) Values of ID50 (the drug concentration producing 50% inhibition of colony formation) may be determined for each tested compound. The directions described in this example may be used in other cells, such as DU-145.

C3H/HeJ mice = test system: C3H/HeJ mice
Protocol: This example provides directions for performing in vivo toxicity tests of the compounds of the invention on C3H/HeJ mice.
Acute toxicities of the compounds of this invention are evaluated on C3H/HeJ mice (body weight 18-22 g). The MTD40 (maximum tolerated dose at day 40) values were determined by the standard procedure described by Gad and Chengelis (see, for example, “Acute Toxicology Testing,” 2nd Ed., Shayne O. Gad and Christopher P. Chengelis, pp. 186-195 (Academic Press)). In the consecutive type studies, 2 mice were dosed at low and moderate doses of 40 and 100 mg/kg. If no severe and irreversible toxicity (euthanasia is required) occurs at these doses, a new pair of animals was initiated at 180 mg/kg, which is 1.8 times higher than 100 mg/kg. Sequential dosages (about 3 doses on 3 pairs of animals, i.e. 2 mice for each drug dose) were increased by a factor of 1.8 until severe and irreversible toxicity (euthanasia is required) occurred. Then another pair of animals was initiated at the highest nonlethal dosage, and successive dosages were increased by a factor of 1.15. The result of this exercise was two dosages, one apparently nonlethal and the other lethal if severe and irreversible toxicity occurs and euthanasia is required, separated by a factor of 1.15. Six mice were dosed at each dosage. If no severe and irreversible toxicity occurred at the lower dosage and at least one with severe and irreversible toxicity occurred at the higher dose, then the lower dose was considered to be the MTD. The compounds of this invention were administered to C3H/HeJ mice by intraperitoneal injection. Drug toxicity was evaluated on mice checked daily for 45 days.

VM46 = assay: Cell colony formation assay, VM46 cells; format: cell-based; details: 72 hours drug exposure
Protocol: as §1, §2, §3

HCT116 = assay: Cell colony formation assay, HCT116 cells; format: cell-based, human; details: 72 hours drug exposure
Protocol: as §1
as §2, with “The” for “Four hundred cells (HCT 116, PC-3, NCI/ADR-RES: human breast cancer cells) or five hundred cells (VM46) were plated in 60 mm Petri dishes containing 2.7 ml of medium (modified McCoy's 5a medium) containing 10% fetal bovine serum and 100 units/ml penicillin and 100 mg/ml streptomycin. The”

[1] = maximum tolerated dose at day 40, C3H/HeJ mice

In the case of `CCCCOCC(=O)OC1(CC)C(=O)OCc2c1cc1n(c2=O)Cc2cc3ccccc3nc2-1` (stereo not shown) [Example 000316, Camptothecin-20-O-ester of butyloxyacetic acid], the “In vitro efficacy: Survival (%) of cells line PC-3” value (PC-3; 1 nM) was 85.72%, the “In vitro efficacy: Survival (%) of cells line PC-3” value (PC-3; 5 nM) was 54.79% and the “In Vivo Toxicity MTD40 (ip, mg/kg) in C3H/Hej Mice” value (C3H/HeJ mice; [1]) was <150 mg/kg. For the same compound, the “In vitro efficacy: Survival (%) of cells line VM46” value (VM46; 1 nM) was 77.50%, the “In vitro efficacy: Survival (%) of cells line VM46” value (VM46; 10 nM) was 0% and the “In Vitro Efficacy: Survival (%) of HCT116” value (HCT116; 1 nM) was 100%. The “In Vitro Efficacy: Survival (%) of HCT116” value (HCT116; 10 nM) was 0% and the “In Vitro Efficacy: Survival (%) of HCT116” value (HCT116; 100 nM) was 0%.
With `CC[C@@]1(OC(=O)COc2ccc(C)nc2I)C(=O)OCc2c1cc1n(c2=O)Cc2cc3ccccc3nc2-1` [Example 000616, Camptotheci-20-O-ester of 6-iodo-2-methylpyridine-5-oxyacetic acid] the “In Vivo Toxicity MTD40 (ip, mg/kg) in C3H/Hej Mice” value (C3H/HeJ mice; [1]) was >150 mg/kg, the “In Vitro Efficacy: Survival (%) of HCT116” value (HCT116; 1 nM) was 84.85% and the “In Vitro Efficacy: Survival (%) of HCT116” value (HCT116; 10 nM) was 0%. The “In Vitro Efficacy: Survival (%) of HCT116” value (HCT116; 100 nM) was 0%.
In the case of `CC[C@@]1(OC(=O)COc2nc3ccccc3s2)C(=O)OCc2c1cc1n(c2=O)Cc2cc3ccccc3nc2-1` [Example 000727, Camptothecin-20-O-ester of benzothiazole-2-oxyacetic acid], the “In Vitro Efficacy: Survival (%) of HCT116” value (HCT116; 1 nM) was 96.81%, the “In Vitro Efficacy: Survival (%) of HCT116” value (HCT116; 10 nM) was 0% and the “In Vitro Efficacy: Survival (%) of HCT116” value (HCT116; 100 nM) was 0%.
For `CCC1(OC(=O)COc2ccc(C)cc2)C(=O)OCc2c1cc1n(c2=O)Cc2cc3ccccc3nc2-1` (stereo not shown) [Example 000518, Camptothecin-20-O-ester of 4-methylphenoxyacetic acid], the “In Vivo Toxicity MTD40 (ip, mg/kg) in C3H/Hej Mice” value (C3H/HeJ mice; [1]) was <150 mg/kg, the “In Vitro Efficacy: Survival (%) of HCT116” value (HCT116; 1 nM) was 97.31% and the “In Vitro Efficacy: Survival (%) of HCT116” value (HCT116; 10 nM) was 0%. The “In Vitro Efficacy: Survival (%) of HCT116” value (HCT116; 100 nM) was 0%.
For `CCC1(OC(=O)COc2cccc(CBr)c2)C(=O)OCc2c1cc1n(c2=O)Cc2cc3ccccc3nc2-1` (stereo not shown) [Example 000501, Camptothecin-20-O-ester of 3-bromomethylphenoxyacetic acid], the “In vitro efficacy: Survival (%) of cells line PC-3” value (PC-3; 1 nM) was 96.02%, the “In vitro efficacy: Survival (%) of cells line PC-3” value (PC-3; 5 nM) was 41.77% and the “In Vivo Toxicity MTD40 (ip, mg/kg) in C3H/Hej Mice” value (C3H/HeJ mice; [1]) was <150 mg/kg. For the same compound, the “In vitro efficacy: Survival (%) of cells line VM46” value (VM46; 1 nM) was 86.60%, the “In vitro efficacy: Survival (%) of cells line VM46” value (VM46; 10 nM) was 0% and the “In Vitro Efficacy: Survival (%) of HCT116” value (HCT116; 1 nM) was 100%. For the same compound, the “In Vitro Efficacy: Survival (%) of HCT116” value (HCT116; 10 nM) was 0% and the “In Vitro Efficacy: Survival (%) of HCT116” value (HCT116; 100 nM) was 0%.
With `CCC1(OC(=O)COc2ccc([N+](=O)[O-])c(C(F)(F)F)c2)C(=O)OCc2c1cc1n(c2=O)Cc2cc3ccccc3nc2-1` (stereo not shown) [Example 000605, Camptothecin-20-O-ester of 4-nitro-3-trifuoromethylphenoxyacetic acid] the “In Vivo Toxicity MTD40 (ip, mg/kg) in C3H/Hej Mice” value (C3H/HeJ mice; [1]) was >150 mg/kg, the “In Vitro Efficacy: Survival (%) of HCT116” value (HCT116; 1 nM) was 88.00% and the “In Vitro Efficacy: Survival (%) of HCT116” value (HCT116; 10 nM) was 0%. For the same compound, the “In Vitro Efficacy: Survival (%) of HCT116” value (HCT116; 100 nM) was 0%.
`CCC1(OC(=O)COc2ccc3c(c2)CC[C@@H]2[C@@H]3CC[C@]3(C)C(=O)CC[C@@H]23)C(=O)OCc2c1cc1n(c2=O)Cc2cc3ccccc3nc2-1` (stereo partly shown) [Example 000531, Camptothecin-20-O-ester of estra-1,3,5(10)-trien-17-one-3-oxyacetic acid] was tested, and the “In Vivo Toxicity MTD40 (ip, mg/kg) in C3H/Hej Mice” value (C3H/HeJ mice; mouse, in vivo) was >150 mg/kg, the “In Vitro Efficacy: Survival (%) of HCT116” value (HCT116; 1 nM) was 81.45% and the “In Vitro Efficacy: Survival (%) of HCT116” value (HCT116; 10 nM) was 0%. For the same compound, the “In Vitro Efficacy: Survival (%) of HCT116” value (HCT116; 100 nM) was 0%.
For `CCC1(OC(=O)COc2ccc(OC)cc2)C(=O)OCc2c1cc1n(c2=O)Cc2cc3ccccc3nc2-1` (stereo not shown) [Example 000314, Camptothecin-20-O-ester of 4-methoxyphenoxyacetic acid], the “In Vivo Toxicity MTD40 (ip, mg/kg) in C3H/Hej Mice” value (C3H/HeJ mice; [1]) was >150 mg/kg and the “In Vitro Efficacy: Survival (%) of HCT116” value (HCT116; 100 nM) was 0%.
